Laboratory results reported in US8551978B2 (Theravance, Inc., priority 2009, dated 2013).
Structures can show the parent of a compound that is named as a salt. Where two headings read alike, the source gives them in different places.

Tests used:
hM3 muscarinic receptor = hM3 muscarinic receptor (Homo sapiens (Human), UniProt P20309); experiment: Radioligand binding assay for muscarinic receptors ([3H]-NMS displacement, CHO cell membranes)
Protocol: The cells were grown in a 5% CO2, 37° C. incubator and lifted with 2 mM EDTA in dPBS. Cells were collected by 5 minute centrifugation at 650×g, and cell pellets were either stored frozen at −80° C. or membranes were prepared immediately for use. For membrane preparation, cell pellets were resuspended in lysis buffer and homogenized with a Polytron PT-2100 tissue disrupter (Kinematica AG; 20 seconds×2 bursts). Crude membranes were centrifuged at 40,000×g for 15 minutes at 4° C. The membrane pellet was then resuspended with re-suspension buffer and homogenized again with the Polytron tissue disrupter. The protein concentration of the membrane suspension was determined by the method described in Lowry et al., 1951, […], 193, 265. All membranes were stored frozen in aliquots at −80° C. or used immediately. […] The membranes were briefly homogenized using a Polytron tissue disruptor (10 seconds) prior to assay plate addition. […] The test compounds were initially dissolved to a concentration of 400 μM in dilution buffer and then serially diluted 5× with dilution buffer to final concentrations ranging from 10 μM to […]. The order of addition and volumes added to the assay plates were as follows: 25 μL radioligand, 25 μL diluted test compound, and 50 μL membranes. Assay plates were incubated for 6 hours at 37° C. […] Filter plates were rinsed three times with wash buffer (10 mM HEPES) to remove unbound radioactivity. The plates were then air-dried and 50 μL Microscint-20 liquid scintillation fluid (PerkinElmer, Inc.) were added to each well. The plates were then counted in a PerkinElmer Topcount liquid scintillation counter (PerkinElmer, Inc.). Binding data were analyzed by nonlinear regression analysis with the GraphPad Prism Software package (GraphPad Software, Inc., San Diego, Calif.) using the one-site competition model. […] These summary statistics were then converted back to K; values for data reporting.

hβ2 adrenergic receptor = hβ2 adrenergic receptor (Homo sapiens (Human), UniProt P07550); experiment: Assay for determining adrenergic receptor agonist potency (cAMP Flashplate, HEK-293 cells); format: cell-based; conditions: data rounded to nearest 1 nM
hβ2 adrenergic receptor, sequence (P07550 whole entry): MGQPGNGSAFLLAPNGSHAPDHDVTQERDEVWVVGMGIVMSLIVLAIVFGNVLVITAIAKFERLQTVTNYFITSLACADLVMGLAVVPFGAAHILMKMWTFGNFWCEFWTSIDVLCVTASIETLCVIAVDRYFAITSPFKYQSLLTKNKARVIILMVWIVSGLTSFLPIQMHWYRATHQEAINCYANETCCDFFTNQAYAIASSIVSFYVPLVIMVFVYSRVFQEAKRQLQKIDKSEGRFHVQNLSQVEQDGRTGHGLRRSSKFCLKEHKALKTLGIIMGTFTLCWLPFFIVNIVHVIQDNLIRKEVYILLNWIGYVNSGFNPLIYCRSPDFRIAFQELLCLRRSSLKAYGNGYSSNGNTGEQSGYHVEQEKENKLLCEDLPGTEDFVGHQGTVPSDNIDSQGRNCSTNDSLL
Protocol: The cell monolayer was lifted with 2 mM EDTA in PBS. Cells were pelleted by centrifugation at 1,000 rpm, and cell pellets were either stored frozen at −80° C. or membranes were prepared immediately for use. cAMP assays were performed in a radioimmunoassay format using the Flashplate Adenylyl Cyclase Activation Assay System with [^125I]-cAMP (NEN SMP004, PerkinElmer Life Sciences Inc., Boston, Mass.), according to the manufacturers instructions. […] Cells were rinsed with PBS and detached in dPBS (Dulbecco's Phosphate Buffered Saline, without CaCl2 and MgCl2) containing 2 mM EDTA or Trypsin-EDTA solution (0.05% trypsin/0.53 mM EDTA). After counting cells in Coulter cell counter, cells were pelleted by centrifugation at 1,000 rpm and re-suspended in stimulation buffer containing TBMX (PerkinElmer Kit) pre-warmed to room temperature to a concentration of 1.6×10^6 to 2.8×10^6 cells/mL. About 40,000 to 80,000 cells per well were used in this assay. […] Reactions were incubated for 10 min at 37° C. and stopped by adding 100 μL of cold detection buffer containing [^125I]-cAMP (NEN SMP004, PerkinElmer Life Sciences, Boston, Mass.). […] Data were analyzed by nonlinear regression analysis with the GraphPad Prism Software package (GraphPad Software, Inc., San Diego, Calif.) with the sigmoidal equation. The Cheng-Prusoff equation (Cheng Y, and Prusoff W H., Biochemical Pharmacology, 1973, 22, 23, 3099-108) was used to calculate the EC50 values.

[1] = tested on: MCh-induced bronchoconstriction; experiment: Einthoven assay: bronchoprotection against methacholine (MCh)-induced bronchoconstriction; format: in vivo, rat; conditions: rat, 100 μg by inhalation, 24 h after administration
Protocol: This assay measures the ability of a test compound to provide bronchoprotection against methacholine (MCh)-induced bronchoconstriction in a rat. Male Sprague-Dawley rats (Harlan, Indianapolis, Ind.), weighing between 200 g and 350 g, were used for all studies. Test compound or vehicle (sterile deionized water) were dosed by inhalation (1H) over a 10 min period in a pie shaped inhalation chamber (R+S Molds, San Carlos, Calif.) using 5 mL of dosing solution. […] Rats were dosed with 100 μg of test compound unless otherwise indicated. At predetermined time points, rats were anesthetized with an intraperitoneal (IP) injection of 120 mg/kg inactin (thiobutabarbital). A supplemental dose (40 mg/kg, IP) was administered if the animal responded to physical stimuli (e.g. toe pinch). The surgical site was shaved and a 1-2 cm midline incision of the ventral aspect of the neck was made. The jugular vein was isolated and cannulated with a saline-filled polyethylene catheter (PE-50) to allow IV infusion of MCh. Trachea was dissected free and cannulated with a 14G needle (#NE-014, Small Parts, Miami Lakes, Fla.). After placement of the tracheal cannula, each rat was ventilated using a respirator (Model 683, Harvard Apparatus, Inc., MA) set at a stroke volume of 1 mL/100 g body weight (but not exceeding 2.5 mL volume) and a rate of 90 strokes per minute. A T-connector was placed along the respirator expiratory tubing to allow for measurement of changes in ventilation pressure (VP) using a Biopac transducer that was connected to a Biopac […]) pre-amplifier. Body temperature was maintained at 37° C. using a heating pad. Changes in VP were recorded using the Acknowledge Data Collection Software (Santa Barbara, Calif.). Baseline values were collected for at least 2.5 min. Rats were then challenged with non-cumulative intravenous (IV) infusions of 40 and 80 μg/kg MCh. MCh was infused intravenously for 2.5 minutes from a syringe pump (sp210iw, World Precision Instruments, Inc., Sarasota, Fla.) at a rate of 2 mL/kg/min, with a 2 minute interval between the two doses of MCh. Changes in ventilation pressure (cm H2O) in treated animals are expressed as % inhibition of MCh response relative to control animals. Other bronchoconstrictors, such as histamine and acetylcholine, can be used in place of MCh in this assay. Additionally, guinea pigs can be used instead of rats. […] Inhibition greater than or equal to 30 percent at 24 h is indicative of a long duration of action.

[2] = hM3 Muscarinic Receptor Binding, data rounded to nearest 0.1 nM

hM3 muscarinic receptor, sequence (P20309 whole entry): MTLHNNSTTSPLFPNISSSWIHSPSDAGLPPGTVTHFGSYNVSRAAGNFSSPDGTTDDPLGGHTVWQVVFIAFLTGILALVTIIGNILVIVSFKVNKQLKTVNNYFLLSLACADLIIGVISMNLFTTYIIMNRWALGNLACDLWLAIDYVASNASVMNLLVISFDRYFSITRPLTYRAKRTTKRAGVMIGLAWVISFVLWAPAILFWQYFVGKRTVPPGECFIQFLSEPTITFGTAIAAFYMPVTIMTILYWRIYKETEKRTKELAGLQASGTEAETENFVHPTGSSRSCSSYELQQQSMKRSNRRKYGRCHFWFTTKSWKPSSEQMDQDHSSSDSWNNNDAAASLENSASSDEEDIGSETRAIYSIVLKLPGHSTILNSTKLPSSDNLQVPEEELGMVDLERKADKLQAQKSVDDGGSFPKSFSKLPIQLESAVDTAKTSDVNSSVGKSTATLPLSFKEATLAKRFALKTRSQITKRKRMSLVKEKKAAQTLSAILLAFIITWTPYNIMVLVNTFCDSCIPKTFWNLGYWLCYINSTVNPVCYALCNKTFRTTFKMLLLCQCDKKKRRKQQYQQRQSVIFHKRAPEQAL

Compound | Ki (hM3 muscarinic receptor) [nM] | EC50 (hβ2 adrenergic receptor) [nM] | Ki (hM3 muscarinic receptor; [2]) [nM] | inhibition in vivo at 0.1 mg ([1]; inhaled or nasal, read-out: Broncho. at 24 h) [%] | Broncho. at 24 h [1]
COc1ccc(NC(=O)CCCN(C)C(=O)CCN2CCC(OC(=O)Nc3ccccc3-c3ccccc3)CC2)cc1CCNC[C@H](O)c1ccc(O)c2[nH]c(=O)ccc12 [Compound I-9] | 0.1 | 6 | – | – | –
Cc1ccc(CNC(=O)Cc2ccc(N(C)C(=O)CCN3CCC(OC(=O)Nc4ccccc4-c4ccccc4)CC3)cc2)cc1CC(C)NC[C@H](O)c1ccc(O)c2[nH]c(=O)ccc12 (stereo partly drawn) [Compound I-70] | – | 1 | 0.3 | – | –
C[C@H](Cc1ccc(CCNC(=O)Cc2ccc(N(C)C(=O)CCN3CCC(OC(=O)Nc4ccccc4-c4ccccc4)CC3)cc2)cc1)NC[C@H](O)c1ccc(O)c2[nH]c(=O)ccc12 [Compound I-90] | 0.1 | 1 | – | – | –
CN(CCCC(=O)Nc1ccc(CNC[C@H](O)c2ccc(O)c3[nH]c(=O)ccc23)cc1)C(=O)CCN1CCC(OC(=O)Nc2ccccc2-c2ccccc2)CC1 [Compound I-1, Biphenyl-2-ylcarbamic Acid 1-(2-{[3-(4-{[(R)-2-Hydroxy-2-(8-hydroxy-2-oxo-1,2-dihydroquinolin-5-yl)ethylamino]methyl}-phenylcarbamoyl)propyl]methylcarbamoyl}ethyl)piperidin-4-yl Ester Ditrifluoroacetic Acid Salt] | – | 3 | 0.1 | – | –
C[C@@H](Cc1ccc(NC(=O)c2cccc(N(C)C(=O)CCN3CCC(OC(=O)Nc4ccccc4-c4ccccc4)CC3)c2)cc1)NC[C@H](O)c1ccc(O)c2[nH]c(=O)ccc12 [Compound I-43] | – | – | – | > 30 | –
C[C@@H](Cc1cccc(CCNC(=O)Cc2ccc(N(C)C(=O)CCN3CCC(OC(=O)Nc4ccccc4-c4ccccc4)CC3)cc2)c1)NC[C@H](O)c1ccc(O)c2[nH]c(=O)ccc12 [Compound I-87] | – | – | – | – | Yes (Bronchoprotective effect present at 24 h, e.g., ≧30% inhibition of the MCh response at 24 h in the rat Einthoven assay (100 μg))
Cc1ccc(C(=O)Nc2ccc(CCNC[C@H](O)c3ccc(O)c4[nH]c(=O)ccc34)cc2)cc1N(C)C(=O)CCN1CCC(OC(=O)Nc2ccccc2-c2ccccc2)CC1 [Compound I-35] | – | – | – | – | Yes (Bronchoprotective effect present at 24 h, e.g., ≧30% inhibition of the MCh response at 24 h in the rat Einthoven assay (100 μg))
C[C@@H](Cc1cccc(CCC(=O)NCc2ccc(N(C)C(=O)CCN3CCC(OC(=O)Nc4ccccc4-c4ccccc4)CC3)cc2)c1)NC[C@H](O)c1ccc(O)c2[nH]c(=O)ccc12 [Compound I-93] | 0.8 | 11 | – | – | –
COc1ccc(CC(=O)Nc2cccc(N(C)C(=O)CCN3CCC(OC(=O)Nc4ccccc4-c4ccccc4)CC3)c2)cc1CC(C)NC[C@H](O)c1ccc(O)c2[nH]c(=O)ccc12 (stereo partly drawn) [Compound I-54] | – | 2 | 0.2 | – | –
C[C@@H](Cc1ccc(CCNC(=O)c2ccc(N(C)C(=O)CCN3CCC(OC(=O)Nc4ccccc4-c4ccccc4)CC3)cc2)cc1)NC[C@H](O)c1ccc(O)c2[nH]c(=O)ccc12 [Compound I-58] | 0.2 | 1 | – | – | –
CN(C(=O)CCN1CCC(OC(=O)Nc2ccccc2-c2ccccc2)CC1)c1cccc(CC(=O)Nc2ccc(CCNC[C@H](O)c3ccc(O)c4[nH]c(=O)ccc34)cc2)c1 [Compound I-63] | 0.1 | 1 | – | – | –
CN(C(=O)CCN1CCC(OC(=O)Nc2ccccc2-c2ccccc2)CC1)c1ccc(CNC(=O)Cc2ccc(CNC[C@H](O)c3ccc(O)c4[nH]c(=O)ccc34)cc2)cc1 [Compound I-75] | 0.2 | 2 | – | – | –
C[C@H](Cc1ccc(CCNC(=O)c2ccc(N(C)C(=O)CCN3CCC(OC(=O)Nc4ccccc4-c4ccccc4)CC3)cc2)cc1)NC[C@H](O)c1ccc(O)c2[nH]c(=O)ccc12 [Compound I-57] | 0.1 | 1 | – | – | –
Cc1cc(NC(=O)Cc2cccc(N(C)C(=O)CCN3CCC(OC(=O)Nc4ccccc4-c4ccccc4)CC3)c2)c(C)cc1CNC[C@H](O)c1ccc(O)c2[nH]c(=O)ccc12 [Compound I-60] | 0.1 | 3 | – | – | –
CC(Cc1cc(CC(=O)NCc2ccc(N(C)C(=O)CCN3CCC(OC(=O)Nc4ccccc4-c4ccccc4)CC3)cc2)ccc1F)NC[C@H](O)c1ccc(O)c2[nH]c(=O)ccc12 (stereo partly drawn) [Compound I-84] | – | 1 | 0.1 | – | –
Cc1ccc(C(=O)NCc2ccc(CC(C)NC[C@H](O)c3ccc(O)c4[nH]c(=O)ccc34)cc2)cc1N(C)C(=O)CCN1CCC(OC(=O)Nc2ccccc2-c2ccccc2)CC1 (stereo partly drawn) [Compound I-47] | – | 3 | 0.2 | – | –
CN(C(=O)CCN1CCC(OC(=O)Nc2ccccc2-c2ccccc2)CC1)c1cccc(C(=O)Nc2ccc(CNC[C@H](O)c3ccc(O)c4[nH]c(=O)ccc34)cc2)c1 [Compound I-25, Ditrifluoroacetic Acid] | 0.1 | 1 | – | – | –
CN(C(=O)CCN1CCC(OC(=O)Nc2ccccc2-c2ccccc2)CC1)c1ccc(CNC(=O)CCc2cccc(CNC[C@H](O)c3ccc(O)c4[nH]c(=O)ccc34)c2)cc1 [Compound I-96] | – | 3 | – | – | –
COc1ccc(CNC(=O)Cc2ccc(N(C)C(=O)CCN3CCC(OC(=O)Nc4ccccc4-c4ccccc4)CC3)cc2)cc1CC(C)NC[C@H](O)c1ccc(O)c2[nH]c(=O)ccc12 (stereo partly drawn) [Compound I-72] | – | 4 | 0.4 | – | –
CN(C(=O)CCN1CCC(OC(=O)Nc2ccccc2-c2ccccc2)CC1)c1cccc(CC(=O)Nc2ccc(CNC[C@H](O)c3ccc(O)c4[nH]c(=O)ccc34)cc2)c1 [Compound I-59] | 0.1 | 3 | – | – | –
CN(C(=O)CCN1CCC(OC(=O)Nc2ccccc2-c2ccccc2)CC1)c1ccc(CNC(=O)Cc2cccc(CNC[C@H](O)c3ccc(O)c4[nH]c(=O)ccc34)c2)cc1 [Compound I-74] | – | 2 | 0.3 | – | –
Cc1c(CNC(=O)Cc2ccc(N(C)C(=O)CCN3CCC(OC(=O)Nc4ccccc4-c4ccccc4)CC3)cc2)cccc1CC(C)NC[C@H](O)c1ccc(O)c2[nH]c(=O)ccc12 (stereo partly drawn) [Compound I-71] | 0.1 | 1 | – | – | –
CN(C(=O)CCN1CCC(OC(=O)Nc2ccccc2-c2ccccc2)CC1)c1ccc(CNC(=O)Cc2cccc(CCNC[C@H](O)c3ccc(O)c4[nH]c(=O)ccc34)c2)cc1 [Compound I-76] | – | 1 | 0.3 | – | –
